Results reported in patent US7772177B2, “BIR domain binding compounds” (Aegera Therapeutics, Inc., priority 2005, dated 2010).

Legend:
GST-HIAP2 (cIAP-1) BIR 3 = molecular target: T1, GST-HIAP2 (cIAP-1) BIR 3 (Homo sapiens, UniProt Q13490); assay: Fluorescence polarization-based competition assay, cIAP-1 Bir3; assay type: binding
T1 construct: made in house; host or cells: E. coli DH5-alpha
Description: GST-HIAP2 (cIAP-1) BIR 3: HIAP2 coding sequence from amino acids 251-363 cloned into PGex4T3 via BamH1 and XhoI. The plasmid was transformed into E. coli DH5α for use in protein expression and purification.
(§1) A fluorescent peptide probe, Fmoc-Ala-Val-Pro-Phe-Tyr(t-Bu)-Leu-Pro-Gly(t-Bu)-Gly-OH was prepared using standard Fmoc chemistry on 2-chlorotrityl chloride resin (Int. J. Pept. Prot. Res. 38:555-561, 1991). Cleavage from the resin was performed using 20% acetic acid in dichloromethane (DCM), which left the side chain still blocked. The C-terminal protected carboxylic acid was coupled to 4′-(aminomethyl)fluorescein (Molecular Probes, A-1351; Eugene, Oreg.) using excess diisopropylcarbodiimide (DIC) in dimethylformamide (DMF) at room temperature and was purified by silica gel chromatography (10% methanol in DCM). The N-terminal Fmoc protecting group was removed using piperidine (20%) in DMF, and purified by silica gel chromatography (20% methanol in DCM, 0.5% HOAc). Finally, the t-butyl side chain protective groups were removed using 95% trifluoroacetic acid containing 2.5% water and 2.5% triisopropyl silane. […] Compound #174 was also used as a fluorescent probe in this assay.
(§2) For all assays, the fluorescence and fluorescence-polarization was evaluated using a Tecan Polarion instrument with the excitation filter set at 485 nm and the emission filter set at 535 nm. For each assay, the concentration of the target protein was first establish by titration of the selected protein in order to produce a linear dose-response signal when incubated alone in the presence of the fluorescent probe. Upon establishing these conditions, the compounds potency (IC50) and selectivity, was assessed in the presence of a fix defined-amount of target protein and fluorescent probe and a 10 point serial dilution of the selected compounds. For each IC50 curve, the assays were run as followed: 25 ul/well of diluted compound in 50 mM MES buffer pH 6.5 were added into a black 96 well plate then 25 ul/well of bovine serum albumin (BSA) at 0.5 mg/ml in 50 mM MES pH 6.5. Auto-fluorescence for each compound was first assessed by performing a reading of the compound/BSA solution alone. Then 25 ul of the fluorescein probe diluted into 50 mM MES containing 0.05 mg/ml BSA were added and a reading to detect quenching of fluorescein signal done. Finally 25 ul/well of the target or control protein (GST-BIRs) diluted at the appropriate concentration in 50 mM MES containing 0.05 mg/ml BSA were added and the fluorescence polarization evaluated.
(§3) For each assay the relative polarization-fluorescence units were plotted against the final concentrations of compound and the IC50 calculated using the Grad pad prism software and/or Cambridge soft. The ki value were derived from the calculated IC50 value as described above and according to the equation described in Nikolovska-Coleska, Z. (2004) Anal Biochem 332, 261-273.
(§4) Compounds exemplified in Table 6 were tested and found to have IC50s in the following ranges: A: >10 μM; B: <10 μM; C: <1 μM using the fluorescence polarization assay, as shown in Table 5. Each of the IC50s was calculated from Graph Pad.

[1] = molecular target: T2, caspase-3 inhibited by linker BIR2-BIR3-RING of XIAP (Homo sapiens, UniProt P98170); assay: Caspase-3 linker-BIR2-BIR3-RING derepression assay; assay type: biochemical
T2 construct: made in house; host or cells: E. coli DH5-alpha (GST-XIAP); E. coli AD494 (His-caspase-3)
T2 sequence (P98170 93-497): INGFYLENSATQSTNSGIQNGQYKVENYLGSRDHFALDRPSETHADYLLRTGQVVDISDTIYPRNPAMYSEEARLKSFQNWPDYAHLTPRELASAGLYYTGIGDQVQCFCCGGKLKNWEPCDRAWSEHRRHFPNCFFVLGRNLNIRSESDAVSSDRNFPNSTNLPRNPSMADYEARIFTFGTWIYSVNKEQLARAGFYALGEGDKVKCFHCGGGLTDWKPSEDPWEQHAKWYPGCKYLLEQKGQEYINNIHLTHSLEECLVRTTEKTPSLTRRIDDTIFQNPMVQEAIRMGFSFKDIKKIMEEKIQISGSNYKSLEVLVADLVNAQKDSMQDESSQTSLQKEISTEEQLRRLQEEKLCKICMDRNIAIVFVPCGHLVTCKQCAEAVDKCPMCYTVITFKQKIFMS
Description: In order to determine the relative activity of the selected compound against BIR2, an in vitro assay was used where caspase-3 was inhibited by linker-BIR2 or linker BIR2-BIR3-RING of XIAP. Briefly, 1.5 ul of the enzyme, 0.25 uM to 2 uM of GST-Xiap fusion protein (GST-linker BIR2, GST-linker BIR2BIR3RING) were co-incubated with serial dilutions of compound (80 uM-0.04 uM). Caspase 3 activity was measured by overlaying 25 ul of a 0.4 mM DEVD-AMC solution. Final reaction volume was 100 ul. All dilutions were performed in caspase buffer (50 mM Hepes pH 7.4, 100 mM NaCl, 10% sucrose, 1 mM EDTA, 10 mM DTT, 0.1% CHAPS (Stennicke, H. R., and Salvesen, G. S. (1997). Biochemical characteristics of caspase-3, -6, -7, and -8. J. Biol. Chem. 272, 25719-25723)).
The fluorescent AMC released from the caspase-3 hydrolysis of the substrate was measured in a TECAN spectrophotometer at 360 nm excitation and 444 nm emission, on a kinetic cycle of 30 minutes with readings taken every 2 minutes. Caspase activity was calculated as Vo of AMC fluorescence/sec. Caspase de-repression by our compounds were compared to caspase-3 alone and caspase 3 repressed by the presence of XIAP fusion protein.
(§5) Results: Compounds were also tested in the apoptosome assay and the linker-BIR2/caspase-3 inhibition assay and found to have IC50s in the following ranges: A: >10 μM; B: <10 μM; C: <1 μM, as shown in Table 7.

GST-HIAP1(cIAP-2) BIR 3 = molecular target: T3, GST-HIAP1(cIAP-2) BIR 3 (Homo sapiens, UniProt Q13489); assay: Fluorescence polarization-based competition assay, cIAP-2 Bir3; assay type: binding
T3 construct: made in house; host or cells: E. coli DH5-alpha
T3 sequence (Q13489 236-349): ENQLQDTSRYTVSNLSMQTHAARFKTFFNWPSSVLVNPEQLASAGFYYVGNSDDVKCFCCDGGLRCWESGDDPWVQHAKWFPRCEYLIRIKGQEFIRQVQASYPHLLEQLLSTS
Description: GST-HIAP1(cIAP-2) BIR 3: HIAP1 coding sequence from amino acids 236-349, cloned into PGex4T3 via BamH1 and XhoI. The plasmid was transformed into E. coli DH5α for use in protein expression and purification.
as §1, §2, §3, §4

GST-XIAP BIR3RING = molecular target: T4, GST-XIAP BIR3RING (Homo sapiens, UniProt P98170); assay: Fluorescence polarization-based competition assay, XIAP Bir3-RING; assay type: binding
T4 construct: made in house; host or cells: E. coli DH5-alpha
T4 sequence (P98170 246-497): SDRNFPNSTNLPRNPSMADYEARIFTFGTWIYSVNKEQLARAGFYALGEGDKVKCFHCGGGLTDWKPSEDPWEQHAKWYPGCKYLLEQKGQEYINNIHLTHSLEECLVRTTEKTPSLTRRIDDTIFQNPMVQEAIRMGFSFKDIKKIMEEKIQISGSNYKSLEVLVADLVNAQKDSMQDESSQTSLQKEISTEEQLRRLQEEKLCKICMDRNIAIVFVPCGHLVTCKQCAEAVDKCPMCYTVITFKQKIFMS
Description: GST-XIAP BIR3RING: XIAP coding sequence amino acids 246-497 cloned into PGEX2T1 via BamH1 and AVA I. The plasmid was transformed into E. coli DH5α for use in protein expression and purification.
as §1, §2, §3, §4

[2] = molecular target: T5, XIAP Bir2-Bir3-RING (GST-linker BIR2 BIR3RING) (Homo sapiens, UniProt P98170); assay: Caspase de-repression assay using cellular extracts (apoptosome), XIAP Bir2-Bir3-RING; assay type: biochemical; conditions: 293 cell S100 extract
T5 construct: made in house; host or cells: E. coli DH5-alpha
T5 sequence (P98170 93-497): as the sequence (P98170 93-497) above
Description: (§6) 100 ug of 293 cell S100 extract and 0.25 uM-2 uM of GST-Xiap fusion protein (GST-BIR 3RING, GST-linker BIR2 BIR3RING) were co-incubated with serial dilutions of compound (0.02 uM-40 uM). Extracts were activated by adding 1 mM dATP, 0.1 mM ALLN, 133 ug Cytochrome C (final concentrations), and incubating at 37° C. for 25 minutes. All reactions and dilutions used S100 buffer (50 mM Pipes pH 7.0, 50 mM KCl, 0.5 mM EGTA pH 8.0, 2 mM MgCl2 supplemented with 1/1000 dilutions of 2 mg/ml Cytochalisin B, 2, mg/ml Chymotstatin, Leupeptin, Pepstatin, Antipain, 0.1M PMSF, 1M DTT). Final reaction volume was 30 ul. Caspase-3 activity was measured by overlaying 30 ul of a 0.4 mM DEVD-AMC solution. AMC cleavage was measured in a TECAN spectrophotometer at 360 nm excitation and 444 nm emission, on a kinetic cycle of 1 hour with readings taken every 5 minutes. Caspase activity was calculated as Vo of AMC fluorescence/sec. Caspase de-repression by our compounds were compared to fully activated extract and activated extract repressed by the presence of XIAP fusion protein.
as §5

[3] = molecular target: T6, XIAP Bir3-RING (GST-BIR 3RING) (Homo sapiens, UniProt P98170); assay: Caspase de-repression assay using cellular extracts (apoptosome), XIAP Bir3-RING; assay type: biochemical; conditions: 293 cell S100 extract
T6 construct: made in house; host or cells: E. coli DH5-alpha
T6 sequence (P98170 246-497): as the sequence (P98170 246-497) above
Description: as §6, §5

T1 sequence (Q13490 251-363): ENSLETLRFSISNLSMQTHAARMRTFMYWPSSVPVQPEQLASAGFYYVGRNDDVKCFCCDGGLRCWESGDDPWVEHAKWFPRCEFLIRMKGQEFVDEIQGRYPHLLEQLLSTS

Structure (SMILES)	IC50 (GST-HIAP2 (cIAP-1) BIR 3) [nM]	IC50 [1] [nM]	IC50 (GST-HIAP1(cIAP-2) BIR 3) [nM]	IC50 (GST-XIAP BIR3RING) [nM]	IC50 [2] [nM]	IC50 [3] [nM]
CC(C)[C@H](NC(=O)[C@H](C)N)C(=O)N1CCC[C@H]1CN(CCc1ccccc1)C(=O)CN [Compound 30]	< 1000	> 10000	< 1000	< 1000	> 10000	< 1000
CNCC(=O)N(CCc1ccccc1)C[C@@H]1CCCN1C(=O)[C@@H](NC(=O)[C@H](C)NC)C(C)(C)C [Compound 34]	< 1000	> 10000	< 1000	< 1000		< 1000
CN[C@@H](C)C(=O)N[C@H](C(=O)N1CCC[C@H]1CN(CCc1ccccc1)C(=O)OCc1ccccc1)C(C)(C)C [Compound 26]	< 1000	> 10000	< 1000	< 1000		> 10000
CC[C@H](N)C(=O)N[C@H](C(=O)N1CCC[C@H]1CN(Cc1ccccc1)C(=O)C(F)(F)F)C(C)C [Compound 12]	> 10000	> 10000	> 10000	< 10000	> 10000	< 1000
CN[C@@H](C)C(=O)N[C@H](C(=O)N1CCC[C@H]1CN(CCc1ccccc1)C(=O)CCC(=O)O)C(C)(C)C [Compound 35]	< 1000	> 10000	< 1000	< 1000		< 1000
COCC(=O)N(CCc1ccccc1)C[C@@H]1CCCN1C(=O)[C@@H](NC(=O)[C@H](C)N)C(C)C [Compound 25]	< 1000	> 10000	< 1000	< 10000		< 1000
CC(C)[C@H](NC(=O)[C@H](C)N)C(=O)N1CCC[C@H]1CN(CCc1ccccc1)C(=O)CCCc1ccccc1 [Compound 31]	< 1000	> 10000	< 1000	< 1000	> 10000	< 1000
CC[C@H](N)C(=O)N[C@H](C(=O)N1CCC[C@H]1CN(C(C)=O)[C@H](C)c1ccccc1)C(C)C [Compound 7]		> 10000		> 10000		< 1000
CC(C)[C@H](NC(=O)[C@H](C)N)C(=O)N1CCC[C@H]1CN(CCc1ccccc1)C(=O)c1ccccc1 [Compound 24]	< 1000	> 10000	< 1000	< 1000		< 1000
CC[C@H](N)C(=O)N[C@H](C(=O)N1CCC[C@H]1CNCCc1ccccc1)C(C)C [Compound 2]	< 10000		< 10000	< 10000	> 10000	> 10000
